From US20110065202A1, “Method for Examination of Alzheimer's Disease” (EISAI R&D MANAGEMENT CO., LTD., priority 2008, published 2011)
Values joined by “and” are separate entries in the source; they are usually repeats but may differ in a detail not shown here. Identical values can stand only once.

Experiment: LC/MS measurement of lidocaine and its metabolite MEGX in cerebrospinal fluid of lidocaine-administered subjects
Type: in vivo, human
Conditions: for Lidocaine peak ratio to lysine / Lidocaine peak ratio to lysine, average: cerebrospinal fluid; for Lidocaine peak ratio to lysine: individual samples, lidocaine hydrochloride standard dose 200 mg at the puncture site, LC/MS; for concentration detected in cerebrospinal fluid, AD patients versus healthy subjects: cerebrospinal fluids, result in words
Procedure: Cerebrospinal fluids of 17 Alzheimer's disease patients (10 male and 7 female Caucasions) and 17 healthy subjects of similar age, sex and race were used as samples. The samples were collected under epidural anesthesia with lidocaine (lidocaine hydrochloride (standard dose: 200 mg) was hypodermically administered at the puncture site). Protein components were removed from 150 microliters of each cerebrospinal fluid by using an ultrafiltration filter of 5000 NMWL (Ultrafree-MC BIOMAX-5, UFC3BCC00, produced by Millipore). To the cerebrospinal fluid, 25 microliters of a solution containing L-Valine-^13C5, ^15N or L-Lysine-^13C5, ^15N as an internal standard substance (0.1% formic acid, 50% methanol solvent) and 800 microliters of a 0.15% hydrochloric acid solution were added. This sample solution was applied to a solid phase extraction column, Oasis MCX (10 mg), produced by Waters. Washing was performed with 1 mL of water first, then with 1 mL of 50% methanol solvent containing 0.1% formic acid, subsequently with 1 mL of water, and with 1 mL of methanol. Then, elution was performed with 1 mL of a mixture of 25% aqueous ammonia and methanol (2:3, v/v), the eluate was dried, the residue was dissolved again in 25 microliters of 50% methanol, and insoluble substances were removed by using a PVDF membrane filter having a pore size of 0.22 micrometer to prepare a sample for LC/MS.
As for the material packed in the LC column, Primesep A resin (particle size: 5 micrometers, pore size: 100 angstroms) of SIELC Technologies (Prospect Heights, Ill.) was packed in a fused silica capillary having an internal diameter of 150 micrometers (internal surface was treated with TC-WAX, produced by GL Sciences, catalog number: 1010-27012) of which tip was tapered to a diameter of about 8 micrometers beforehand with a laser-based puller P-2000 (produced by Sutter) at a height of about 15 cm under a nitrogen gas pressure of about 7 MPa, and this was used as a column. 50% Methanol containing 0.1% formic acid was used as a mobile phase A, and 90% methanol containing 2% trifluoroacetic acid in addition to 0.1% formic acid was used as a mobile phase B. The concentration gradient of the mobile phase B was, from the start of elution, as follows: 0 minute (0%)-5 minutes (0%)-25 minutes (25%)-25.1 minutes (50%)-50 minutes (100%)-60 minutes (100%), and the flow rate was 1 microliter per minute. Since valine as the internal standard substance was eluted in a period of 5 to 25 minutes, and lysine as the internal standard substance was eluted in a period of 25 to 50 minutes, either one of the internal standard substances was appropriately used for quantification of each substance depending on the elution time. Qstar Pulsar i produced by Applied Biosystems was used in the cation detection mode as the mass spectrometer with an applied voltage of 2400 volts at a DP value of 10 and an IP value of 100 for improving the sensitivity to perform the measurement for the scanning range of 50 to 700 amu.
Further, by the MS/MS measurement, m/z 86.08 and m/z 58.06 were obtained from the former and the latter, respectively, as the product ions. The former was estimated to be that of lidocaine, and the latter was estimated to be that of MEGX, which is a metabolite of lidocaine. Therefore, specimens of these substances were obtained, and measured under the same LC/MS conditions. As a result, the same retention times and mass spectra were obtained, and thus it was confirmed that these peaks were those of lidocaine and MEXG.

SMILES	Lidocaine peak ratio to lysine (AD patient)	Lidocaine peak ratio to lysine, average (average of 17 AD patients)	Lidocaine peak ratio to lysine, average (average of 17 healthy controls)	Lidocaine peak ratio to lysine (healthy control)	concentration detected in cerebrospinal fluid, AD patients versus healthy subjects
CCN(CC)CC(=O)Nc1c(C)cccc1C [Lidocaine, lidocaine]	0.842 and 0.040 and 0.059 and 0.035 and 0.396 and 0.030 and 0.000 (2×) and 0.086 and 0.061 and 0.055 and 0.107 and 0.745 and 0.021 and 0.143 and 0.015 and 0.277	0.2	1.427	1.40 and 0.83 and 2.29 and 1.20 and 1.72 and 2.84 and 1.53 and 0.96 and 0.91 and 1.79 and 1.50 and 0.72 and 1.09 and 1.31 and 0.98 and 0.67 and 2.54	AD patient-specific low concentrations
CCNCC(=O)Nc1c(C)cccc1C [MEGX, monoethylglycinexylidide]					AD patient-specific low concentrations
